Assay results from US20040266623A1, “SYNERGISTIC QUINCLORAC HERBICIDAL COMPOSITIONS” (priority 2003, published 2004).

Tests used:
Test in all cases: Greenhouse pot test, postemergent spray, visual control rating converted to percent control
Type in all cases: in vivo
white clover = system: white clover
Method: (§1) Pots of crabgrass, dandelion, white clover, and plantain grown in greenhouse soiless growth media were sprayed with a greenhouse pot sprayer at 43.46 gallons of spray solution/acre and allowed to stand in the greenhouse. Visual observation of the effects made by the herbicidal compositions on the plants in the test pots was recorded for control of crabgrass, dandelion, clover and plantain at 24 hours after treatment (HAT), 48 hours after treatment (HAT), 72 hours after treatment (HAT), 7 days after treatment (DAT), 14 days after treatment (DAT) and 21 days after treatment (DAT). A control rating scale of 1 to 9 was used to record the visual observation of the effect of the herbicidal composition on the plants over the time period of the tests. 1=no control, and 9=death of plant, with intervening numbers representing successive degrees of observed effectiveness of the herbicidal composition over time. The 1-9 control rating scale was converted to percent control in the test data charts that follow.
(§2) The test protocol of S. R. Colby as set out in his article entitled “Calculating Synergistic and Antagonistic Responses of Herbicide Compositions,” received for publication Apr. 11, 1966, Contribution No. 3796 and Scientific Article No. 1271 of the Maryland Agricultural Experiment Station, Department pf Agronomy, University of Maryland was followed to evaluate the synergistic properties of the combination of quinclorac plus a herbicidal protox inhibitor, and a combination of quinclorac, plus a herbicidal protox inhibitor plus a herbicidal auxinic agent as compared with the individual herbicides, using Colby's formulas E=X+Y−XY/100 for a two herbicide combination, where E=the expected percent of inhibition of growth by herbicides, X=the percent inhibition of growth by herbicide A at p lb/A, and Y=the percent inhibition of growth by herbicide B at q lb/A, for a given combination of two herbicides. Colby's formula E=X+Y+Z−(XY+XZ+YZ)/100+XYZ/10,000, was used for the three-way herbicide combination evaluation, where E, X and Y are the same as in the two herbicide formula and Z=the percent inhibition of growth by the third herbicide.

dandelion = system: dandelion
Method: as §1, §2

crabgrass = system: crabgrass
Method: as §1, §2

plantain = system: plantain
Method: as §1, §2

## CC(C)CCCCCOC(=O)COc1ccc(Cl)cc1Cl [2,4-D IOE]
White clover; Test 1, 7 DAT, 0.70 lbs/A
  % Control Clover: 44.4%
  Control (1-9) Clover: 4
White clover; Test 1, 14 DAT, 0.70 lbs/A
  % Control Clover: 88.9%
  Control (1-9) Clover: 8
White clover; Test 1, 24 HAT, 0.70 lbs/A
  % Control Clover: 11.1%
  Control (1-9) Clover: 1
White clover; Test 1, 48 HAT, 0.70 lbs/A
  % Control Clover: 44.4%
  Control (1-9) Clover: 4
White clover; Test 2, 7 DAT, 0.70 lbs/A
  % Control Clover: 66.7%
  Control (1-9) Clover: 6
White clover; Test 2, 14 DAT, 0.70 lbs/A
  % Control Clover: 100.0%
  Control (1-9) Clover: 9
White clover; Test 2, 24 HAT, 0.70 lbs/A
  % Control Clover: 33.3%
  Control (1-9) Clover: 3
White clover; Test 2, 72 HAT, 0.70 lbs/A
  % Control Clover: 66.7%
  Control (1-9) Clover: 6
dandelion; Test 1, 7 DAT, 0.70 lbs/A
  % Control Dandelion: 66.7%
  Control (1-9) Dandelion: 6
dandelion; Test 1, 14 DAT, 0.70 lbs/A
  % Control Dandelion: 100.0%
  Control (1-9) Dandelion: 9
dandelion; Test 1, 24 HAT, 0.70 lbs/A
  % Control Dandelion: 33.3%
  Control (1-9) Dandelion: 3
dandelion; Test 1, 48 HAT, 0.70 lbs/A
  % Control Dandelion: 44.4%
  Control (1-9) Dandelion: 4
dandelion; Test 2, 7 DAT, 0.70 lbs/A
  % Control Dandelion: 88.9%
  Control (1-9) Dandelion: 8
dandelion; Test 2, 14 DAT, 0.70 lbs/A
  % Control Dandelion: 100.0%
  Control (1-9) Dandelion: 9
dandelion; Test 2, 24 HAT, 0.70 lbs/A
  % Control Dandelion: 33.3%
  Control (1-9) Dandelion: 3
dandelion; Test 2, 72 HAT, 0.70 lbs/A
  % Control Dandelion: 66.7%
  Control (1-9) Dandelion: 6
crabgrass; Test 1, 7 DAT, 0.70 lbs/A
  % Control Crabgrass: 44.4%
  Control (1-9) Crabgrass: 4
crabgrass; Test 1, 14 DAT, 0.70 lbs/A
  % Control Crabgrass: 33.3%
  Control (1-9) Crabgrass: 3
crabgrass; Test 1, 24 HAT, 0.70 lbs/A
  % Control Crabgrass: 22.2%
  Control (1-9) Crabgrass: 2
crabgrass; Test 1, 48 HAT, 0.70 lbs/A
  % Control Crabgrass: 44.4%
  Control (1-9) Crabgrass: 4
crabgrass; Test 2, 7 DAT, 0.70 lbs/A
  % Control Crabgrass: 22.2%
  Control (1-9) Crabgrass: 2
crabgrass; Test 2, 14 DAT, 0.70 lbs/A
  % Control Crabgrass: 22.2%
  Control (1-9) Crabgrass: 2
crabgrass; Test 2, 24 HAT, 0.70 lbs/A
  % Control Crabgrass: 33.3%
  Control (1-9) Crabgrass: 3
crabgrass; Test 2, 72 HAT, 0.70 lbs/A
  % Control Crabgrass: 66.7%
  Control (1-9) Crabgrass: 6

## Cc1nn(-c2cc(CC(Cl)C(=O)O)c(Cl)cc2F)c(=O)n1C(F)F (centres unmarked) [Carfentrazone]
White clover; Test 1, 7 DAT, 0.01 lbs/A
  % Control Clover: 66.7%
  Control (1-9) Clover: 6
White clover; Test 1, 7 DAT, 0.02 lbs/A
  % Control Clover: 66.7%
  Control (1-9) Clover: 6
White clover; Test 1, 14 DAT, 0.01 lbs/A
  % Control Clover: 77.8%
  Control (1-9) Clover: 7
White clover; Test 1, 14 DAT, 0.02 lbs/A
  % Control Clover: 100.0%
  Control (1-9) Clover: 9
White clover; Test 1, 24 HAT, 0.01 lbs/A
  % Control Clover: 33.3%
  Control (1-9) Clover: 3
White clover; Test 1, 24 HAT, 0.02 lbs/A
  % Control Clover: 33.3%
  Control (1-9) Clover: 3
White clover; Test 1, 48 HAT, 0.01 lbs/A
  % Control Clover: 55.6%
  Control (1-9) Clover: 5
White clover; Test 1, 48 HAT, 0.02 lbs/A
  % Control Clover: 55.6%
  Control (1-9) Clover: 5
White clover; Test 4, 7 DAT, 0.01 lbs/A
  % Control Clover: 66.7%
  Control (1-9) Clover: 6
White clover; Test 4, 7 DAT, 0.02 lbs/A
  % Control Clover: 77.8%
  Control (1-9) Clover: 7
White clover; Test 4, 14 DAT, 0.01 lbs/A
  % Control Clover: 66.7%
  Control (1-9) Clover: 6
White clover; Test 4, 14 DAT, 0.02 lbs/A
  % Control Clover: 88.9%
  Control (1-9) Clover: 8
plantain; Test 4, 7 DAT, 0.01 lbs/A
  % Control Plantain: 100.0%
  Control (1-9) Plantain: 9
plantain; Test 4, 7 DAT, 0.02 lbs/A
  % Control Plantain: 88.9%
  Control (1-9) Plantain: 8
plantain; Test 4, 14 DAT, 0.01 lbs/A
  % Control Plantain: 100.0%
  Control (1-9) Plantain: 9
plantain; Test 4, 14 DAT, 0.02 lbs/A
  % Control Plantain: 88.9%
  Control (1-9) Plantain: 8
dandelion; Test 1, 7 DAT, 0.01 lbs/A
  % Control Dandelion: 88.9%
  Control (1-9) Dandelion: 8
dandelion; Test 1, 7 DAT, 0.02 lbs/A
  % Control Dandelion: 88.9%
  Control (1-9) Dandelion: 8
dandelion; Test 1, 14 DAT, 0.01 lbs/A
  % Control Dandelion: 88.9%
  Control (1-9) Dandelion: 8
dandelion; Test 1, 14 DAT, 0.02 lbs/A
  % Control Dandelion: 100.0%
  Control (1-9) Dandelion: 9
dandelion; Test 1, 24 HAT, 0.01 lbs/A
  % Control Dandelion: 44.4%
  Control (1-9) Dandelion: 4
dandelion; Test 1, 24 HAT, 0.02 lbs/A
  % Control Dandelion: 33.3%
  Control (1-9) Dandelion: 3
dandelion; Test 1, 48 HAT, 0.01 lbs/A
  % Control Dandelion: 55.6%
  Control (1-9) Dandelion: 5
dandelion; Test 1, 48 HAT, 0.02 lbs/A
  % Control Dandelion: 55.6%
  Control (1-9) Dandelion: 5
dandelion; Test 4, 7 DAT, 0.01 lbs/A
  % Control Dandelion: 55.6%
  Control (1-9) Dandelion: 5
dandelion; Test 4, 7 DAT, 0.02 lbs/A
  % Control Dandelion: 88.9%
  Control (1-9) Dandelion: 8
dandelion; Test 4, 14 DAT, 0.01 lbs/A
  % Control Dandelion: 55.6%
  Control (1-9) Dandelion: 5
dandelion; Test 4, 14 DAT, 0.02 lbs/A
  % Control Dandelion: 88.9%
  Control (1-9) Dandelion: 8
crabgrass; Test 1, 7 DAT, 0.01 lbs/A
  % Control Crabgrass: 77.8%
  Control (1-9) Crabgrass: 7
crabgrass; Test 1, 7 DAT, 0.02 lbs/A
  % Control Crabgrass: 77.8%
  Control (1-9) Crabgrass: 7
crabgrass; Test 1, 14 DAT, 0.01 lbs/A
  % Control Crabgrass: 33.3%
  Control (1-9) Crabgrass: 3
crabgrass; Test 1, 14 DAT, 0.02 lbs/A
  % Control Crabgrass: 33.3%
  Control (1-9) Crabgrass: 3
crabgrass; Test 1, 24 HAT, 0.01 lbs/A
  % Control Crabgrass: 22.2%
  Control (1-9) Crabgrass: 2
crabgrass; Test 1, 24 HAT, 0.02 lbs/A
  % Control Crabgrass: 33.3%
  Control (1-9) Crabgrass: 3
crabgrass; Test 1, 48 HAT, 0.01 lbs/A
  % Control Crabgrass: 33.3%
  Control (1-9) Crabgrass: 3
crabgrass; Test 1, 48 HAT, 0.02 lbs/A
  % Control Crabgrass: 55.6%
  Control (1-9) Crabgrass: 5
crabgrass; Test 4, 7 DAT, 0.01 lbs/A
  % Control Crabgrass: 55.6%
  Control (1-9) Crabgrass: 5
crabgrass; Test 4, 7 DAT, 0.02 lbs/A
  % Control Crabgrass: 55.6%
  Control (1-9) Crabgrass: 5
crabgrass; Test 4, 14 DAT, 0.01 lbs/A
  % Control Crabgrass: 55.6%
  Control (1-9) Crabgrass: 5
crabgrass; Test 4, 14 DAT, 0.02 lbs/A
  % Control Crabgrass: 55.6%
  Control (1-9) Crabgrass: 5

## Cc1nn(-c2cc(NS(C)(=O)=O)c(Cl)cc2Cl)c(=O)n1C(F)F [Sulfentrazone, reference compound]
White clover; Test 2, 7 DAT, 0.02 lbs/A
  % Control Clover: 77.8%
  Control (1-9) Clover: 7
White clover; Test 2, 7 DAT, 0.03 lbs/A
  % Control Clover: 55.6%
  Control (1-9) Clover: 5
White clover; Test 2, 14 DAT, 0.02 lbs/A
  % Control Clover: 77.8%
  Control (1-9) Clover: 7
White clover; Test 2, 14 DAT, 0.03 lbs/A
  % Control Clover: 66.7%
  Control (1-9) Clover: 6
White clover; Test 2, 24 HAT, 0.02 lbs/A
  % Control Clover: 22.2%
  Control (1-9) Clover: 2
White clover; Test 2, 24 HAT, 0.03 lbs/A
  % Control Clover: 22.2%
  Control (1-9) Clover: 2
White clover; Test 2, 72 HAT, 0.02 lbs/A
  % Control Clover: 33.3%
  Control (1-9) Clover: 3
White clover; Test 2, 72 HAT, 0.03 lbs/A
  % Control Clover: 22.2%
  Control (1-9) Clover: 2
dandelion; Test 2, 7 DAT, 0.02 lbs/A
  % Control Dandelion: 88.9%
  Control (1-9) Dandelion: 8
dandelion; Test 2, 7 DAT, 0.03 lbs/A
  % Control Dandelion: 88.9%
  Control (1-9) Dandelion: 8
dandelion; Test 2, 14 DAT, 0.02 lbs/A
  % Control Dandelion: 88.9%
  Control (1-9) Dandelion: 8
dandelion; Test 2, 14 DAT, 0.03 lbs/A
  % Control Dandelion: 88.9%
  Control (1-9) Dandelion: 8
dandelion; Test 2, 24 HAT, 0.02 lbs/A
  % Control Dandelion: 22.2%
  Control (1-9) Dandelion: 2
dandelion; Test 2, 24 HAT, 0.03 lbs/A
  % Control Dandelion: 22.2%
  Control (1-9) Dandelion: 2
dandelion; Test 2, 72 HAT, 0.02 lbs/A
  % Control Dandelion: 44.4%
  Control (1-9) Dandelion: 4
dandelion; Test 2, 72 HAT, 0.03 lbs/A
  % Control Dandelion: 44.4%
  Control (1-9) Dandelion: 4
crabgrass; Test 2, 7 DAT, 0.02 lbs/A
  % Control Crabgrass: 22.2%
  Control (1-9) Crabgrass: 2
crabgrass; Test 2, 7 DAT, 0.03 lbs/A
  % Control Crabgrass: 22.2%
  Control (1-9) Crabgrass: 2
crabgrass; Test 2, 14 DAT, 0.02 lbs/A
  % Control Crabgrass: 22.2%
  Control (1-9) Crabgrass: 2
crabgrass; Test 2, 14 DAT, 0.03 lbs/A
  % Control Crabgrass: 22.2%
  Control (1-9) Crabgrass: 2
crabgrass; Test 2, 24 HAT, 0.02 lbs/A
  % Control Crabgrass: 33.3%
  Control (1-9) Crabgrass: 3
crabgrass; Test 2, 24 HAT, 0.03 lbs/A
  % Control Crabgrass: 44.4%
  Control (1-9) Crabgrass: 4
crabgrass; Test 2, 72 HAT, 0.02 lbs/A
  % Control Crabgrass: 33.3%
  Control (1-9) Crabgrass: 3
crabgrass; Test 2, 72 HAT, 0.03 lbs/A
  % Control Crabgrass: 33.3%
  Control (1-9) Crabgrass: 3
